Assays:
Format in all cases: in vivo
[1] = system: opioid-induced itch; experiment: Ferret model of opioid (morphine-6-glucuronide)-induced itch (licking)
Procedure: FIG. 2: FIG. 2. Prevention of opioid-induced itch by Zangrado. Itch, as measured by the number of licking episodes per hour, was induced by parenteral administration of the opioid narcotic, morphine-6-glucuronide (15 mg/kg) ip.
Zangrado (CGO 110) contains active components and is effective in the treatment of itch.

[2] = system: opioid-induced emesis; experiment: Ferret model of opioid (morphine-6-glucuronide)-induced emesis
Procedure: FIG. 1. Prevention of opioid-induced emesis by the Croton speceis extract, (Zangrado®). Emesis as measured by the number of vomiting and retching episodes per hour was induced by parenteral administration of the opioid narcotic, morphine-6-glucuronide (15 mg/kg) ip.
Sangre de Grado has also been used ethnomedically for the treatment of a variety of intestinal complications including diarrhea, ulcerations, cancer and emesis. Using a well-established ferret model of post-operative complications of emesis induced by morphine, Zangrado (CGO 110) was administered intraperitoneally (3 mg/kg) to ferrets 15 minutes prior to the administration of morphine-6-glucuronide (M6G), known to promote itching, retching and vomiting. The animals were monitored for sixty minutes.
As shown in FIG. 1 the subcutaneous injection of 0.05 mg/kg M6G caused a significant number of vomiting (2.2±0.4) and retching (10±1.2) incidences in the control group. In those animals treated with Zangrado (CGO 110), the number of these episodes was virtually abolished (vomiting 0.6±0.3; retching 2.2±0.7, P<0.05). Given the utility of this model to predict treatments for nausea and vomiting, Zangrado (CGO 110) contains active components and is effective in the treatment of emesis.

[3] = Body temperature and sedation at anti-emetic doses; conditions: CGO 110 3 mg/kg
Description: As such, Zangrado represents a significant improvement in the treatment of emesis and itch.

SMILES	effect on licking in naïve animals [1]	effect on emesis in naïve animals [2]	effect on body temperature [3]	sedation [3]
Cc1c(C(=O)NN2CCCCC2)nn(-c2ccc(Cl)cc2Cl)c1-c1ccc(I)cc1 [AM251]	promotes licking	promotes emesis	–	–
Cc1c(C(=O)c2cccc3ccccc23)c2cccc3c2n1[C@H](CN1CCOCC1)CO3 [WIN 55, 212-2]	–	–	produces a drop in body temperature	significant sedation

— patent US7632524B2, “Pharmaceutical preparations for the treatment of itch, nausea, hyperalgesia and the complications of opioid agonists” (priority 2002, dated 2009)
